Results: patent US20020028255A1, “Pesticide treatment” (priority 1998, published 2002)

Columns and labels:
[1] = test system: Maize (Pioneer 3394) seeds; assay: Damage (bleaching of the shoot) to maize seeds bathed in herbicide solutions, control vs hypochlorite-sterilized seed; format: in vivo; conditions: for damage to maize: low concentration
Method: Maize (Pioneer 3394) seeds were placed in a solution of 1% (w/w) sodium hypochlorite for 30 seconds, then rinsed thoroughly for 5 minutes with sodium bicarbonate solution (5% w/w).
Replicates of 20 seeds from each treatment were placed in petri dishes and bathed in 25 ml of the following solutions for 24 hours (covered and incubated at 25° C. in a growth cabinet).
After 24 hours the seeds were removed from the bathing solutions, rinsed thoroughly in water and planted (in green light- as some of the seeds had started to produce a coleoptile which is sensitive to daylight). Seeds were planted in duplicate in 10 cm×10 cm pots containing non-sterile loam and were overhead watered 3 times daily.
Assessments were made 7 and 14 DAT (days after treatment).

[2] = Cleaning of a contaminated 1000 l tank with sodium hypochlorite solution; format: physicochemical; conditions: tank wet with 0.02% (w/w) suspension; 10 l of 0.01% (w/w) sodium hypochlorite, one hour
Description: A 1000 l container or tank was used to prepare a suspension of dione pesticide (2-cyano-3-cyclopropyl- 1-(2-methylsulphonyl-4-trifluoromethylphenyl)propan-1,3-dione). The suspension was used to destroy the weeds in a crop growing area. The container was then still wet with aqueous suspension of 0.02% (w/w) of the pesticide.
10 l of 0.01% (w/w) solution of sodium hypochlorite is poured into the tank and stirred (so as to contact the whole inner surface of the container) and left for one hour.
Example 3 is repeated except that the pesticide is an isoxazole (5-cyclopropyl-4-(2-methylsulphonyl-4-trifluoromethylbenzoyl)isoxazole;IFT) and the pH of the hypochlorite solution is 8.5 (adjusted using NaOH).

[3] = Vials of dione solution in water (500 ppt) treated with water containing chlorine (ppb); format: physicochemical; conditions: dione 500 ppt, ambient temperature
Method: (B) Vials containing 1 ml of solutions in water of the dione used in (A) (at a concentration of 500 ppt) were treated at ambient temperature with 1 ml of water containing 0.1 or 0.5 ppb concentrations of chlorine.

[4] = Kinetics of decomposition of the dione in water in the presence of chlorine (ppm); format: physicochemical
Description: (A) The kinetics of the decomposition of 2-cyano-3-cyclopropyl-1-(2-methylsulphonyl-4-trifluoromethylphenyl)propan-1,3-dione in water was studied. The following Table summarizes the results obtained at pH7 or pH9 in the presence of 0.1 or 0.5 ppm of chlorine. The percentages given are of degradation of the dione to the corresponding benzoic acid, 2-methylsulphonyl-4-trifluoromethyl-benzoic acid.

[5] = Decomposition of DKN in bleach, followed by TLC; format: physicochemical; conditions: 1 g in 25 ml bleach (14 to 15% chlorine), ambient temperature, after 30 minutes
Method: 2-Cyano-3-cyclopropyl-1-2-methylsulphonyl-4-trifluoromethylphenyl)propan-1,3-dione(DKN:1 g) was added to 25 ml of bleach (containing 14 to 15% chlorine). The mixture was stirred at ambient temperature. After 3 minutes a clear solution formed. […] The main product was the corresponding benzoic acid.

[6] = control seed, 1.0 μg ml^−1, bathed 24 hours
[7] = control seed, 10.0 μg ml^−1, bathed 24 hours
[8] = sterilized seed (1% sodium hypochlorite), 1.0 μg ml^−1, bathed 24 hours
[9] = sterilized seed (1% sodium hypochlorite), 10.0 μg ml^−1, bathed 24 hours

SMILES: CS(=O)(=O)c1cc(C(F)(F)F)ccc1C(=O)c1cnoc1C1CC1 [IFT, 5-cyclopropyl-4-(2-methylsulphonyl-4-trifluoromethylbenzoyl)isoxazole]
- % Damage (bleaching of the shoot) ([1]; control seed, 0.1 μg ml^−1, bathed 24 hours): 0%
- % Damage (bleaching of the shoot) [1, 6]: 20%
- % Damage (bleaching of the shoot) [1, 7]: 98%
- damage to maize ([1]; 0.1 μg ml^−1): No damage
- % Damage (bleaching of the shoot) ([1]; sterilized seed (1% sodium hypochlorite), 0.1 μg ml^−1, bathed 24 hours): 0%
- % Damage (bleaching of the shoot) [1, 8]: 13%
- % Damage (bleaching of the shoot) [1, 9]: 100%

SMILES: CS(=O)(=O)c1cc(C(F)(F)F)ccc1C(=O)C(C#N)C(=O)C1CC1 (stereo not drawn) [DKN]
- disappearance of pesticide from the tank [2]: All of the dione pesticide disappeared
- degradation of the dione ([3]; pH 5, Cl2 0.1 ppb, 15 min): 100%
- degradation of the dione ([3]; pH 5, Cl2 0.5 ppb, 15 min): 100%
- degradation of the dione ([3]; pH 7, Cl2 0.1 ppb, 15 min): 100%
- degradation of the dione ([3]; pH 7, Cl2 0.5 ppb, 15 min): 100%
- degradation of the dione ([3]; pH 9, Cl2 0.1 ppb, 60 min): >90%
- degradation of the dione ([3]; pH 9, Cl2 0.5 ppb, 15 min): 100%
- degradation of the dione to the corresponding benzoic acid ([4]; pH 7, Cl2 0.1 ppm, 15 min): 100%
- degradation of the dione to the corresponding benzoic acid ([4]; pH 7, Cl2 0.5 ppm, 15 min): 100%
- degradation of the dione to the corresponding benzoic acid ([4]; pH 9, Cl2 0.1 ppm, 15 min): 50%
- degradation of the dione to the corresponding benzoic acid ([4]; pH 9, Cl2 0.1 ppm, 60 min): 100%
- degradation of the dione to the corresponding benzoic acid ([4]; pH 9, Cl2 0.5 ppm, 15 min): 100%
- % Damage (bleaching of the shoot) [1, 6]: 0%
- % Damage (bleaching of the shoot) [1, 7]: 0%
- % Damage (bleaching of the shoot) ([1]; control seed, 100.0 μg ml^−1, bathed 24 hours): 87%
- damage to maize ([1]; 1 μg ml^−1): No damage
- % Damage (bleaching of the shoot) [1, 8]: 0%
- % Damage (bleaching of the shoot) [1, 9]: 0%
- % Damage (bleaching of the shoot) ([1]; sterilized seed (1% sodium hypochlorite), 100.0 μg ml^−1, bathed 24 hours): 11%
- DKN remaining by thin layer chromatography [5]: no DKN was detected
